Our source for the inhibition and IC50 values is ChEMBL document CHEMBL1140789, “Sulfonate chalcone as new class voltage-dependent K+ channel blocker” (Bioorg Med Chem Lett, 2008).

Structures are written as SMILES.

Assay type in all cases: cell-based
One experiment deals with HEK293. Briefly: Blockade of human K+ channel in HEK293 cells assessed as inhibition of outward delayed rectifying K+ current at 10 uM.
Experiment [1] in a line: Blockade of human K+ channel in HEK293 cells assessed as inhibition of outward delayed rectifying K+ current.
The target in experiment [2] is Potassium voltage-gated channel subfamily A member 1 (Homo sapiens) (UniProt Q09470). As to the kind of experiment: Blockade of Kv1.1 channel over-expressed in CHO cells assessed as inhibition of delayed rectifying K+ current at 10 uM.
Sequence of Potassium voltage-gated channel subfamily A member 1 (Homo sapiens) (Q09470 whole entry): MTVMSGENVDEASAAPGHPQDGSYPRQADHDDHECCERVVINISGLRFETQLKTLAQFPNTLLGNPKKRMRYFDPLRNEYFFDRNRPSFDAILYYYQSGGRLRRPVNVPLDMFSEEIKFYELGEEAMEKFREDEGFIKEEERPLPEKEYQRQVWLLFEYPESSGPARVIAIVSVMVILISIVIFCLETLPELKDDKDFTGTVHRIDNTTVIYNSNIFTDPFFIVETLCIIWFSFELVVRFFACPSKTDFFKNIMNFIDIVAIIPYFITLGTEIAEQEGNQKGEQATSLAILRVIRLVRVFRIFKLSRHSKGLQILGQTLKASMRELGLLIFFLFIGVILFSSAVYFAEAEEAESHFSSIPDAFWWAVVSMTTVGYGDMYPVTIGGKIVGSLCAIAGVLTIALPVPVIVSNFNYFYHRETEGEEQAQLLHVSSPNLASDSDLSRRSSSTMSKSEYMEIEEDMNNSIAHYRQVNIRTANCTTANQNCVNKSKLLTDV
Experiment [3] concerns the target Potassium voltage-gated channel subfamily A member 6 (Homo sapiens) (UniProt P17658). Briefly: Blockade of Kv1.6 channel over-expressed in CHO cells assessed as inhibition of delayed rectifying K+ current at 10 uM.
The target of experiment [4] is Potassium voltage-gated channel subfamily A member 2 (Homo sapiens) (UniProt P16389). Briefly: Blockade of Kv1.2 channel over-expressed in CHO cells assessed as inhibition of delayed rectifying K+ current at 10 uM.
Sequence of Potassium voltage-gated channel subfamily A member 2 (Homo sapiens) (P16389 whole entry): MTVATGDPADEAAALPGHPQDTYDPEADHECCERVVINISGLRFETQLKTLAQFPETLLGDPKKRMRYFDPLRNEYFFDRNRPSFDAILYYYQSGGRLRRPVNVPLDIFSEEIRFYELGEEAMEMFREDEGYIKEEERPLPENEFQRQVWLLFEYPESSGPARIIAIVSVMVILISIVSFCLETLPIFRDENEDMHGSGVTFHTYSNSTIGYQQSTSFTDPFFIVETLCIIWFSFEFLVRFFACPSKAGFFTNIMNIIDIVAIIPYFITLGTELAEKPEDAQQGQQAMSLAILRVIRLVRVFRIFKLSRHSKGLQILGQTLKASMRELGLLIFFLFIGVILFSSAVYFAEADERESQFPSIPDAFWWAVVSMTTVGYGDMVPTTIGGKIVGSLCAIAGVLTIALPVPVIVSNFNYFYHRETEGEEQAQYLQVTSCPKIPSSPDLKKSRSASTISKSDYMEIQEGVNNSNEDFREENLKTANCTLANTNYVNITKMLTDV
Experiment [5] has as its target Potassium voltage-gated channel subfamily A member 3 (Homo sapiens) (UniProt P22001). Briefly: Blockade of Kv1.3 channel over-expressed in CHO cells assessed as inhibition of delayed rectifying K+ current at 10 uM.

Sequence of Potassium voltage-gated channel subfamily A member 6 (Homo sapiens) (P17658 whole entry): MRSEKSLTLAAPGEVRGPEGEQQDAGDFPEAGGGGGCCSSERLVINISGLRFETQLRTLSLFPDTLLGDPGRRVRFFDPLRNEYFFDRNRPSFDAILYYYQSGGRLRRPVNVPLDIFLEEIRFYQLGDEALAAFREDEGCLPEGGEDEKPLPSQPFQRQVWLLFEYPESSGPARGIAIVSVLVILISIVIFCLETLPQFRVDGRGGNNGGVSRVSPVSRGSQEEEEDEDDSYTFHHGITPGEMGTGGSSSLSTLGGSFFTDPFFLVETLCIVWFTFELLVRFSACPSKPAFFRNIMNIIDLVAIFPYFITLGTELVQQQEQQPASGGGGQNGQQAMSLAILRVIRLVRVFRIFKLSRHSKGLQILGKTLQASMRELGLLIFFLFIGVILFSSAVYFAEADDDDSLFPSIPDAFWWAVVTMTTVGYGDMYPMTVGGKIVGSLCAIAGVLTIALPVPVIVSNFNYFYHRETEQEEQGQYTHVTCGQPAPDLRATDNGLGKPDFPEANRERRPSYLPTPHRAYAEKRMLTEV
Sequence of Potassium voltage-gated channel subfamily A member 3 (Homo sapiens) (P22001 whole entry): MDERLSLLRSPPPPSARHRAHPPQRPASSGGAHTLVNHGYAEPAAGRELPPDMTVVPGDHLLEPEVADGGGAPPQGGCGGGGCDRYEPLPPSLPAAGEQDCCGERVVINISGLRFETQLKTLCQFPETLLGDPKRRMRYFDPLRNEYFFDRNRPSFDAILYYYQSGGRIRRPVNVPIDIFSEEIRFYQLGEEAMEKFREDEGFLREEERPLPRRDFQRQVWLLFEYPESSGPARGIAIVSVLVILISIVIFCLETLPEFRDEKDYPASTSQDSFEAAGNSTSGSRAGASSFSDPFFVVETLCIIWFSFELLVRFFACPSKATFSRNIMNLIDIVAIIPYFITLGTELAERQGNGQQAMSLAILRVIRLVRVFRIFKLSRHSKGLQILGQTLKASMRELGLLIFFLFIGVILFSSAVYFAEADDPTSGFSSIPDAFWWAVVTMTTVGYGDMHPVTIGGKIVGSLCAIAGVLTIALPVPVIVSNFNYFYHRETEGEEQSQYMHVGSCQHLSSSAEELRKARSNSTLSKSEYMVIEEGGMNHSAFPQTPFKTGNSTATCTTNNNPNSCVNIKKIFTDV

The inhibition is how much of the control response was suppressed. Usually IC50 stands for the concentration that inhibits the measured activity by half. Take `O=C(/C=C/c1ccc(O)cc1)c1ccc(O)cc1` [4,4'-DIHYDROXYCHALCONE]: the inhibition with HEK293 amounted to 28.2%. Besides, the IC50 in experiment [1] is > 50 µM.

`O=C(/C=C/c1ccc(OS(=O)(=O)c2ccccc2)cc1)c1ccccc1`: the IC50 in experiment [1] is > 50 µM. Regarding `Nc1ccc(S(=O)(=O)Oc2cccc(C(=O)/C=C/c3ccc(O)cc3)c2)cc1`, the inhibition in experiment [2] amounted to 87.5%; in experiment [3], 44.2%; in experiment [4], 87.4%; in experiment [5] it was 20.6%. Moreover, the IC50 in experiment [1] amounted to 0.51 µM.

`COc1ccc(/C=C/C(=O)c2ccc(OS(=O)(=O)c3ccc(C)cc3)cc2)cc1`: in experiment [1], the IC50 is > 10 µM. Same read-out and setting: with `O=C(/C=C/c1ccc(O)cc1)c1ccc(OS(=O)(=O)c2ccc([N+](=O)[O-])cc2)cc1` the figure was 10.7 µM; with `O=C(/C=C/c1ccc(O)cc1)c1ccccc1` [4-HYDROXYCHALCONE], > 50 µM; with `O=C(/C=C/c1ccc(OS(=O)(=O)c2ccc(F)cc2)cc1)c1ccccc1`, > 50 µM. With `O=C(/C=C/c1ccc(O)cc1)c1ccc(OS(=O)(=O)c2ccccc2)cc1`, the IC50 in experiment [1] amounted to 2.4 µM. For `O=C(/C=C/c1ccccc1)c1ccc(O)cc1` [4'-HYDROXYCHALCONE], in experiment [1], the IC50 was > 50 µM. Still for that read-out and setting: for `Nc1ccc(S(=O)(=O)Oc2ccc(C(=O)/C=C/c3ccccc3)cc2)cc1` the value was 0.85 µM; for `O=C(/C=C/c1ccc(O)cc1)c1ccc(OS(=O)(=O)c2ccc(F)cc2)cc1`, 2.7 µM.

`Cc1ccc(S(=O)(=O)Oc2ccc(C(=O)/C=C/c3ccc(O)cc3)cc2)cc1`: the half-inhibitory concentration (IC50) in experiment [1] was 1.6 µM. The same measure, in the same setting: with `Nc1ccc(S(=O)(=O)Oc2ccc(C(=O)/C=C/c3ccc(O)cc3)cc2)cc1` the figure was 1.1 µM; with `Cc1ccc(S(=O)(=O)Oc2ccc(/C=C/C(=O)c3ccc(O)cc3)cc2)cc1`, > 50 µM. As to `O=C(/C=C/c1ccccc1)c1ccccc1` [CHALCONE], the inhibition in the experiment with HEK293 is 24.2%. For the same compound, the IC50 in experiment [1] was > 50 µM. As to `CC(=O)Nc1ccc(S(=O)(=O)Oc2ccc(C(=O)/C=C/c3ccc(O)cc3)cc2)cc1`, the IC50 in experiment [1] is > 10 µM.

`Cc1ccc(S(=O)(=O)Oc2ccc(/C=C/C(=O)c3ccccc3)cc2)cc1`: the IC50 in experiment [1] is > 50 µM.
